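Where inhibition never reached the appropriate level, the endpoint shown equals the highest concentration tested. Otherwise, values were interpolated linearly from a five-concentration, 48-hour dose response in 96-well plates. GI50 = concentration required for 50% inhibition of growth.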 Activity calls are given as the source filed them. No stated cut-off is given here; in the data, active = GI50 up to about 1.1 µM and inactive = higher.
How the values were obtained:
Assay in all cases: DTP human tumour cell line panel, 48 h
786-0 = tested on: 786-0
A498 = tested on: A498
A549 = tested on: A549
ACHN = tested on: ACHN
BT-549 = tested on: BT-549
CAKI-1 = tested on: CAKI-1
CCRF-CEM = tested on: CCRF-CEM
COLO 205 = tested on: COLO 205
DU-145 = tested on: DU-145
EKVX = tested on: EKVX
HCC 2998 = tested on: HCC 2998
HCT-116 = tested on: HCT-116
HCT-15 = tested on: HCT-15
HL-60 = tested on: HL-60
HOP-62 = tested on: HOP-62
HOP-92 = tested on: HOP-92
HT-29 = tested on: HT-29
Hs-578T = tested on: Hs-578T
IGROV-1 = tested on: IGROV-1
K562 = tested on: K562
KM12 = tested on: KM12
LOX IMVI = tested on: LOX IMVI
M14 = tested on: M14
MCF7 = tested on: MCF7
MDA-MB-231 = tested on: MDA-MB-231
MDA-MB-435 = tested on: MDA-MB-435
MDA-N = tested on: MDA-N
MOLT-4 = tested on: MOLT-4
Malme-3M = tested on: Malme-3M
NCI-H226 = tested on: NCI-H226
NCI-H23 = tested on: NCI-H23
NCI-H460 = tested on: NCI-H460
NCI-H522 = tested on: NCI-H522
NCI/ADR-RES = tested on: NCI/ADR-RES
OVCAR-3 = tested on: OVCAR-3
OVCAR-4 = tested on: OVCAR-4
OVCAR-5 = tested on: OVCAR-5
OVCAR-8 = tested on: OVCAR-8
PC-3 = tested on: PC-3
RPMI-8226 = tested on: RPMI-8226
RXF 393 = tested on: RXF 393
SF-268 = tested on: SF-268
SF-295 = tested on: SF-295
SF-539 = tested on: SF-539
SK-MEL-28 = tested on: SK-MEL-28
SK-MEL-2 = tested on: SK-MEL-2
SK-MEL-5 = tested on: SK-MEL-5
SK-OV-3 = tested on: SK-OV-3
SN12C = tested on: SN12C
SNB-19 = tested on: SNB-19
SNB-75 = tested on: SNB-75
SR = tested on: SR
SW-620 = tested on: SW-620
T47D = tested on: T47D
TK-10 = tested on: TK-10
U-251 = tested on: U-251
UACC-257 = tested on: UACC-257
UACC-62 = tested on: UACC-62
UO-31 = tested on: UO-31

Cc1ccc(C)c(C2NC(=O)c3ccccc3N2)c1 (stereo unspecified)
GI50 (786-0): 1.76 µM (inactive) | GI50 (A498): 3.62 µM (inactive) | GI50 (A549): 1.79 µM (inactive) | GI50 (ACHN): 4.83 µM (inactive) | GI50 (BT-549): 5.25 µM (inactive) | GI50 (CAKI-1): 3.27 µM (inactive) | GI50 (CCRF-CEM): 0.753 µM (active) | GI50 (COLO 205): 0.703 µM (active) | GI50 (DU-145): 2.56 µM (inactive) | GI50 (EKVX): 5.07 µM (inactive) | GI50 (HCC 2998): 2.8 µM (inactive) | GI50 (HCT-116): 0.601 µM (active) | GI50 (HCT-15): 0.515 µM | GI50 (HL-60): 0.118 µM (active) | GI50 (HOP-62): 1.93 µM (inactive) | GI50 (HOP-92): 37.2 µM (inactive) | GI50 (HT-29): 0.445 µM (active) | GI50 (Hs-578T): 1.09 µM (active) | GI50 (IGROV-1): 1.13 µM (inactive) | GI50 (K562): 0.274 µM (active) | GI50 (KM12): 2.99 µM (inactive) | GI50 (LOX IMVI): 2.05 µM (inactive) | GI50 (M14): 0.719 µM (active) | GI50 (MCF7): 0.454 µM (active) | GI50 (MDA-MB-231): 10.3 µM (inactive) | GI50 (MDA-MB-435): 0.0792 µM (active) | GI50 (MDA-N): 0.0986 µM (active) | GI50 (MOLT-4): 0.506 µM (active) | GI50 (Malme-3M): 0.668 µM (active) | GI50 (NCI-H226): 2.95 µM (inactive) | GI50 (NCI-H23): 6.04 µM (inactive) | GI50 (NCI-H460): 0.916 µM (active) | GI50 (NCI-H522): 0.689 µM (active) | GI50 (NCI/ADR-RES): 0.7 µM (active) | GI50 (OVCAR-3): 0.265 µM (active) | GI50 (OVCAR-4): 6.27 µM (inactive) | GI50 (OVCAR-5): 6.18 µM (inactive) | GI50 (OVCAR-8): 4.31 µM (inactive) | GI50 (PC-3): 1.06 µM (active) | GI50 (RPMI-8226): 2.11 µM (inactive) | GI50 (RXF 393): 1.95 µM (inactive) | GI50 (SF-268): 3.27 µM (inactive) | GI50 (SF-295): 1.12 µM (inactive) | GI50 (SF-539): 0.587 µM (active) | GI50 (SK-MEL-28): 12.5 µM (inactive) | GI50 (SK-MEL-2): 1.29 µM (inactive) | GI50 (SK-MEL-5): 0.335 µM (active) | GI50 (SK-OV-3): 2.02 µM (inactive) | GI50 (SN12C): 4.69 µM (inactive) | GI50 (SNB-19): 2.1 µM (inactive) | GI50 (SNB-75): 0.423 µM (active) | GI50 (SR): 0.555 µM (active) | GI50 (SW-620): 0.472 µM (active) | GI50 (T47D): 2.72 µM (inactive) | GI50 (TK-10): 6.82 µM (inactive) | GI50 (U-251): 1.21 µM (inactive) | GI50 (UACC-257): 12 µM (inactive) | GI50 (UACC-62): 1.31 µM (inactive) | GI50 (UO-31): 7.71 µM (inactive)

Cc1ccc(/N=N/c2ccc(O)c(CN(C)C)c2)cc1C
GI50 (786-0): 34.4 µM (inactive) | GI50 (A498): 22.3 µM (inactive) | GI50 (A549): 34.7 µM (inactive) | GI50 (ACHN): 17.6 µM (inactive) | GI50 (BT-549): 25.6 µM (inactive) | GI50 (CAKI-1): 25.6 µM (inactive) | GI50 (CCRF-CEM): 24 µM (inactive) | GI50 (COLO 205): 11.9 µM (inactive) | GI50 (DU-145): 29.5 µM (inactive) | GI50 (EKVX): 20.6 µM (inactive) | GI50 (HCC 2998): 16.4 µM (inactive) | GI50 (HCT-116): 36.3 µM (inactive) | GI50 (HCT-15): 17.3 µM | GI50 (HL-60): 10.1 µM (inactive) | GI50 (HOP-62): 15.5 µM (inactive) | GI50 (HOP-92): 26.8 µM (inactive) | GI50 (HT-29): 18.4 µM (inactive) | GI50 (Hs-578T): 16.4 µM (inactive) | GI50 (IGROV-1): 21.3 µM (inactive) | GI50 (K562): 13.9 µM (inactive) | GI50 (KM12): 16.9 µM (inactive) | GI50 (LOX IMVI): 10.5 µM (inactive) | GI50 (M14): 33 µM (inactive) | GI50 (MCF7): 35.3 µM (inactive) | GI50 (MDA-MB-231): 16.3 µM (inactive) | GI50 (MDA-MB-435): 18.7 µM (inactive) | GI50 (MDA-N): 38.9 µM (inactive) | GI50 (MOLT-4): 16.6 µM (inactive) | GI50 (Malme-3M): 19.1 µM (inactive) | GI50 (NCI-H226): 26.9 µM (inactive) | GI50 (NCI-H23): 70.3 µM (inactive) | GI50 (NCI-H460): 19.1 µM (inactive) | GI50 (NCI-H522): 10.6 µM (inactive) | GI50 (NCI/ADR-RES): 16 µM (inactive) | GI50 (OVCAR-3): 15.6 µM (inactive) | GI50 (OVCAR-4): 43.4 µM (inactive) | GI50 (OVCAR-5): 31.8 µM (inactive) | GI50 (OVCAR-8): 37.2 µM (inactive) | GI50 (PC-3): 40.9 µM (inactive) | GI50 (RPMI-8226): 26.5 µM (inactive) | GI50 (RXF 393): 17.5 µM (inactive) | GI50 (SF-268): 27.9 µM (inactive) | GI50 (SF-295): 40.7 µM (inactive) | GI50 (SF-539): 19.5 µM (inactive) | GI50 (SK-MEL-28): 5.47 µM (inactive) | GI50 (SK-MEL-2): 16.2 µM (inactive) | GI50 (SK-MEL-5): 15.1 µM (inactive) | GI50 (SK-OV-3): 45 µM (inactive) | GI50 (SN12C): > 100 µM (inactive) | GI50 (SNB-19): 34.2 µM (inactive) | GI50 (SNB-75): 21.9 µM (inactive) | GI50 (SR): 27.2 µM (inactive) | GI50 (SW-620): 33.6 µM (inactive) | GI50 (T47D): 14 µM (inactive) | GI50 (TK-10): 16.1 µM (inactive) | GI50 (U-251): 34.6 µM (inactive) | GI50 (UACC-257): 23.1 µM (inactive) | GI50 (UACC-62): 17.1 µM (inactive) | GI50 (UO-31): 8.3 µM (inactive)

CC(C)=CC[S+]([O-])c1ccccc1NC1=CC(=O)CC(C)(C)C1 (stereo unspecified)
GI50 (786-0): > 100 µM (inactive) | GI50 (A498): > 100 µM (inactive) | GI50 (A549): > 100 µM (inactive) | GI50 (ACHN): > 100 µM (inactive) | GI50 (BT-549): > 100 µM (inactive) | GI50 (CAKI-1): > 100 µM (inactive) | GI50 (CCRF-CEM): > 100 µM (inactive) | GI50 (COLO 205): > 100 µM (inactive) | GI50 (DU-145): > 100 µM (inactive) | GI50 (EKVX): > 100 µM (inactive) | GI50 (HCC 2998): > 100 µM (inactive) | GI50 (HCT-116): > 100 µM (inactive) | GI50 (HCT-15): 8.3 µM | GI50 (HL-60): > 100 µM (inactive) | GI50 (HOP-62): 0.124 µM (active) | GI50 (HOP-92): > 100 µM (inactive) | GI50 (HT-29): > 100 µM (inactive) | GI50 (Hs-578T): > 100 µM (inactive) | GI50 (IGROV-1): > 100 µM (inactive) | GI50 (K562): > 100 µM (inactive) | GI50 (KM12): > 100 µM (inactive) | GI50 (LOX IMVI): > 100 µM (inactive) | GI50 (M14): > 100 µM (inactive) | GI50 (MCF7): > 100 µM (inactive) | GI50 (MDA-MB-231): > 100 µM (inactive) | GI50 (MDA-MB-435): > 100 µM (inactive) | GI50 (MDA-N): > 100 µM (inactive) | GI50 (MOLT-4): > 100 µM (inactive) | GI50 (Malme-3M): > 100 µM (inactive) | GI50 (NCI-H226): > 100 µM (inactive) | GI50 (NCI-H23): > 100 µM (inactive) | GI50 (NCI-H460): > 100 µM (inactive) | GI50 (NCI-H522): > 100 µM (inactive) | GI50 (NCI/ADR-RES): > 100 µM (inactive) | GI50 (OVCAR-3): > 100 µM (inactive) | GI50 (OVCAR-4): > 100 µM (inactive) | GI50 (OVCAR-5): > 100 µM (inactive) | GI50 (OVCAR-8): > 100 µM (inactive) | GI50 (PC-3): > 100 µM (inactive) | GI50 (RPMI-8226): > 100 µM (inactive) | GI50 (RXF 393): > 100 µM (inactive) | GI50 (SF-268): > 100 µM (inactive) | GI50 (SF-539): > 100 µM (inactive) | GI50 (SK-MEL-28): > 100 µM (inactive) | GI50 (SK-MEL-2): > 100 µM (inactive) | GI50 (SK-MEL-5): > 100 µM (inactive) | GI50 (SK-OV-3): > 100 µM (inactive) | GI50 (SN12C): > 100 µM (inactive) | GI50 (SNB-19): > 100 µM (inactive) | GI50 (SNB-75): > 100 µM (inactive) | GI50 (SR): > 100 µM (inactive) | GI50 (SW-620): > 100 µM (inactive) | GI50 (T47D): > 100 µM (inactive) | GI50 (TK-10): > 100 µM (inactive) | GI50 (U-251): 0.223 µM (active) | GI50 (UACC-257): > 100 µM (inactive) | GI50 (UACC-62): > 100 µM (inactive) | GI50 (UO-31): > 100 µM (inactive)
